Experimental data taken from publication PMC12028158, “Synthesis and In Vitro Evaluation of the Anticancer Effect of Novel Phosphonium Vindoline Derivatives” (International Journal of Molecular Sciences, 2025).
Read-outs that look alike come from different tables or passages of the source.

Assays:
Type in all cases: cell-based
CCRF-CEM [1] = test: NCI60 five-dose screen; details: Homo sapiens, Leukemia, five-dose, read-out: GI50
SW-620 = test: NCI60 five-dose screen; details: Homo sapiens
DU-145 = test: NCI60 one-dose screen; details: Homo sapiens
UACC-62 = test: NCI60 one-dose screen; details: Homo sapiens
HOP-92 = test: NCI60 one-dose screen; details: Homo sapiens
NCI/ADR-RES = test: NCI60 one-dose screen; details: Homo sapiens, read-out: Growth percent
Prostate Cancer panel = test: NCI60 five-dose screen, panel mean; details: Homo sapiens
SK-MEL-2 = test: NCI60 one-dose screen; details: Homo sapiens
786-0 = test: NCI60 one-dose screen; details: Homo sapiens
Melanoma panel = test: NCI60 five-dose screen, panel mean; details: Homo sapiens
K-562 = test: NCI60 five-dose screen; details: Homo sapiens, K562
RPMI-8226 = test: NCI60 five-dose screen; details: Homo sapiens
IGROV1 [2] = test: NCI60 one-dose screen; details: Homo sapiens
U251 [3] = test: NCI60 one-dose screen; details: Homo sapiens
Leukemia panel = test: NCI60 five-dose screen, panel mean; details: Homo sapiens
NCI-H522 [4] = test: NCI60 five-dose screen; details: Homo sapiens
NCI-H460 = test: NCI60 five-dose screen; details: Homo sapiens
ACHN = test: NCI60 five-dose screen; details: Homo sapiens
U251 [5] = test: NCI60 five-dose screen; details: Homo sapiens
MDA-MB-435 = test: NCI60 one-dose screen; details: Homo sapiens
HS 578T = test: NCI60 one-dose screen; details: Homo sapiens, read-out: Growth percent
PC-3 = test: NCI60 five-dose screen; details: Homo sapiens
TK-10 = test: NCI60 five-dose screen; details: Homo sapiens
LOX IMVI [6] = test: NCI60 five-dose screen; details: Homo sapiens
HOP-62 [7] = test: NCI60 five-dose screen; details: Homo sapiens
HL-60(TB) = test: NCI60 one-dose screen; details: Homo sapiens
A498 = test: NCI60 one-dose screen; details: Homo sapiens
NCI-H522 [8] = test: NCI60 one-dose screen; details: Homo sapiens
T-47D [9] = test: NCI60 five-dose screen; details: Homo sapiens, T47D
CCRF-CEM [10] = test: NCI60 one-dose screen; details: Homo sapiens, read-out: Growth percent
HCC-2998 = test: NCI60 five-dose screen; details: Homo sapiens
MDA-MB-468 = test: NCI60 five-dose screen; details: Homo sapiens
OVCAR-5 = test: NCI60 five-dose screen; details: Homo sapiens
EKVX [11] = test: NCI60 one-dose screen; details: Homo sapiens, read-out: Growth percent
SF-539 = test: NCI60 one-dose screen; details: Homo sapiens
MCF7 = test: NCI60 one-dose screen; details: Homo sapiens
HOP-62 [12] = test: NCI60 one-dose screen; details: Homo sapiens
CAKI-1 = test: NCI60 five-dose screen; details: Homo sapiens
UACC-257 = test: NCI60 one-dose screen; details: Homo sapiens
IGROV1 [13] = test: NCI60 five-dose screen; details: Homo sapiens, IGROV-1
LOX IMVI [14] = test: NCI60 one-dose screen; details: Homo sapiens, read-out: Growth percent
RXF 393 = test: NCI60 five-dose screen; details: Homo sapiens, RXF 393
T-47D [15] = test: NCI60 one-dose screen; details: Homo sapiens, T47D, read-out: Growth percent
UO-31 = test: NCI60 one-dose screen; details: Homo sapiens, UO-31, read-out: Growth percent
EKVX [16] = test: NCI60 five-dose screen; details: Homo sapiens
MDA-MB-231/ATCC = test: NCI60 one-dose screen; details: Homo sapiens, MDA-MB-231, read-out: Growth percent
SR = test: NCI60 one-dose screen; details: Homo sapiens, read-out: Growth percent

CC[C@]12C=CCN3CC[C@@]4(c5ccc(OC)cc5N(C)[C@H]4[C@@](O)(C(=O)OC)[C@@H]1OC(=O)CCC[P+](c1cc(C)c(OC)c(C)c1)(c1cc(C)c(OC)c(C)c1)c1cc(C)c(OC)c(C)c1)[C@@H]32 [9e]
GI50 (CCRF-CEM [1]): 114 nM | GI50 (SW-620; SW-620, Colon Cancer, five-dose, read-out: GI50): 245 nM | activity at 10 µM (DU-145; DU-145, 10 μM, one-dose, read-out: Growth percent): -96.8% | activity at 10 µM (UACC-62; UACC-62, 10 μM, one-dose, read-out: Growth percent): -97.7% | activity at 10 µM (HOP-92; HOP-92, 10 μM, one-dose, read-out: Growth percent): -98.9% | activity at 10 µM (NCI/ADR-RES; 10 μM, one-dose): -87.2% | GI50 (Prostate Cancer panel; mean over Prostate Cancer panel, read-out: Mean GI50): 250 nM | activity at 10 µM (SK-MEL-2; SK-MEL-2, 10 μM, one-dose, read-out: Growth percent): -98.2% | activity at 10 µM (786-0; 786-0, 10 μM, one-dose, read-out: Growth percent): -97.9% | GI50 (Melanoma panel; mean over Melanoma panel, read-out: Mean GI50): 180 nM | GI50 (K-562; K-562, Leukemia, five-dose, read-out: GI50): 195 nM | GI50 (RPMI-8226; RPMI-8226, Leukemia, five-dose, read-out: GI50): 20 nM | activity at 10 µM (IGROV1 [2]; IGROV-1, IGROV1, 10 μM, one-dose, read-out: Growth percent): -99% | activity at 10 µM (U251 [3]; U-251, U251, 10 μM, one-dose, read-out: Growth percent): -96.5% | GI50 (Leukemia panel; mean over Leukemia panel, read-out: Mean GI50): 110 nM | GI50 (NCI-H522 [4]; NCI-H522, Non-small Cell Lung Cancer, five-dose, read-out: GI50): 198 nM | GI50 (NCI-H460; NCI-H460, Non-small Cell Lung Cancer, five-dose, read-out: GI50): 229 nM | GI50 (ACHN; Renal Cancer, five-dose, read-out: GI50): 319 nM | GI50 (U251 [5]; U-251, CNS cancer U251, text, read-out: GI50): < 100 nM | GI50 (U251 [5]; U-251, U251, CNS Cancer, five-dose, read-out: GI50): 54 nM | activity at 10 µM (MDA-MB-435; MDA-MB-435, 10 μM, one-dose, read-out: Growth percent): -98.2% | activity at 10 µM (HS 578T; HS 578T, 10 μM, one-dose): -98.2% | GI50 (PC-3; PC-3, Prostate Cancer, five-dose, read-out: GI50): 192 nM | GI50 (TK-10; TK-10, Renal Cancer, five-dose, read-out: GI50): 277 nM | GI50 (LOX IMVI [6]; Melanoma, five-dose, read-out: GI50): 145 nM | GI50 (HOP-62 [7]; HOP-62, Non-small Cell Lung Cancer, five-dose, read-out: GI50): 173 nM | activity at 10 µM (HL-60(TB); HL-60(TB), 10 μM, one-dose, read-out: Growth percent): -97.2% | activity at 10 µM (A498; A498, 10 μM, one-dose, read-out: Growth percent): -98.9% | activity at 10 µM (NCI-H522 [8]; NCI-H522, 10 μM, one-dose, read-out: Growth percent): -98.4% | GI50 (T-47D [9]; T-47D, Breast Cancer, five-dose, read-out: GI50): 105 nM | activity at 10 µM (CCRF-CEM [10]; 10 μM, one-dose): -95.7% | GI50 (HCC-2998; HCC-2998, Colon Cancer, five-dose, read-out: GI50): 195 nM | GI50 (MDA-MB-468; MDA-MB-468, MDA-MB-468, Breast Cancer, five-dose, read-out: GI50): 27 nM | GI50 (MDA-MB-468; MDA-MB-468, breast cancer MDA-MB-468, text, read-out: GI50): < 100 nM | GI50 (OVCAR-5; OVCAR-5, Ovarian Cancer, five-dose, read-out: GI50): 339 nM | activity at 10 µM (EKVX [11]; 10 μM, one-dose): -98.2% | activity at 10 µM (SF-539; SF-539, 10 μM, one-dose, read-out: Growth percent): -97.2% | activity at 10 µM (MCF7; MCF7, 10 μM, one-dose, read-out: Growth percent): -94.5% | activity at 10 µM (HOP-62 [12]; HOP-62, 10 μM, one-dose, read-out: Growth percent): -97.9% | GI50 (CAKI-1; CAKI-1, Renal Cancer, five-dose, read-out: GI50): 313 nM | activity at 10 µM (UACC-257; UACC-257, 10 μM, one-dose, read-out: Growth percent): -99.3% | GI50 (IGROV1 [13]; IGROV1, Ovarian Cancer, five-dose, read-out: GI50): 193 nM | activity at 10 µM (LOX IMVI [14]; 10 μM, one-dose): -96.8%

CC[C@]12C=CCN3CC[C@@]4(c5ccc(OC)cc5N(C)[C@H]4[C@@](O)(C(=O)OC)[C@@H]1OC(=O)CCCC[P+](c1ccc(OC)cc1)(c1ccc(OC)cc1)c1ccc(OC)cc1)[C@@H]32 [10b]
GI50 (SW-620; SW-620): 1060 nM | activity at 10 µM (DU-145; DU-145, read-out: Growth percent): -58.2% | activity at 10 µM (UACC-62; UACC-62, read-out: Growth percent): -95.2% | activity at 10 µM (HOP-92; HOP-92, read-out: Growth percent): -74.5% | activity at 10 µM (NCI/ADR-RES): 84.3% | GI50 (Prostate Cancer panel; read-out: GI50 Mean): 8280 nM | activity at 10 µM (SK-MEL-2; SK-MEL-2, read-out: Growth percent): -91.4% | activity at 10 µM (786-0; 786-0, read-out: Growth percent): -92.9% | GI50 (Melanoma panel; read-out: GI50 Mean): 980 nM | GI50 (K-562): 675 nM | GI50 (RPMI-8226; RPMI-8226): 299 nM | GI50 (RXF 393): 524 nM | activity at 10 µM (IGROV1 [2]; IGROV-1, read-out: Growth percent): -92% | activity at 10 µM (U251 [3]; U-251, read-out: Growth percent): -95.9% | GI50 (Leukemia panel; read-out: GI50 Mean): 560 nM | GI50 (NCI-H522 [4]; NCI-H522): 341 nM | GI50 (NCI-H460; NCI-H460): 1150 nM | GI50 (ACHN): 6280 nM | GI50 (U251 [5]; U-251): 392 nM | activity at 10 µM (T-47D [15]): -46.6% | activity at 10 µM (UO-31): 15.5% | GI50 (EKVX [16]): 185 nM | activity at 10 µM (MDA-MB-435; MDA-MB-435, read-out: Growth percent): -88.5% | activity at 10 µM (HS 578T; Hs-578T): -67.5% | GI50 (PC-3; PC-3): 562 nM | GI50 (TK-10; TK-10): 1670 nM | GI50 (LOX IMVI [6]): 1110 nM | GI50 (HOP-62 [7]; HOP-62): 2420 nM | activity at 10 µM (MDA-MB-231/ATCC): -97.4% | activity at 10 µM (HL-60(TB); HL-60, read-out: Growth percent): -45.2% | activity at 10 µM (A498; A498, read-out: Growth percent): -54.7% | activity at 10 µM (NCI-H522 [8]; NCI-H522, read-out: Growth percent): -81.9% | GI50 (T-47D [9]): 383 nM | activity at 10 µM (CCRF-CEM [10]): -59.1% | GI50 (HCC-2998; HCC 2998): 617 nM | GI50 (MDA-MB-468; MDA-MB-468): 264 nM | GI50 (OVCAR-5; OVCAR-5): 2130 nM | activity at 10 µM (EKVX [11]): -59.7% | activity at 10 µM (SF-539; SF-539, read-out: Growth percent): -97.5% | activity at 10 µM (MCF7; MCF7, read-out: Growth percent): -82.6% | activity at 10 µM (HOP-62 [12]; HOP-62, read-out: Growth percent): -80.8% | activity at 10 µM (SR): 23.2% | GI50 (CAKI-1; CAKI-1): 15200 nM | activity at 10 µM (UACC-257; UACC-257, read-out: Growth percent): -93.4% | GI50 (IGROV1 [13]): 548 nM | activity at 10 µM (LOX IMVI [14]): -96.4%
